According to patent US7122173B2, “Agent for the treatment of bladder irritative symptoms accompanied by benign prostatic hyperplasia” (Kyowa Hakko Kogyo Co., Ltd., priority 2001, dated 2006):

Key:
[1] = tested on: slowly-inactivating A-type K^+ channel; assay: Voltage clamp, slowly-inactivating A-type K+ currents (HP −90 mV) in unidentified DRG neurons; format: cell-based, rat; conditions: for K+ current HP: −90 mV (slowly-inactivating A-type), relative value (before drug = 1): unidentified DRG neurons
Experimental: (§1) Experiments were performed on adult female Sprague Dawley rats. First and second series of the experiments were performed, respectively, in unidentified DRG neurons and a specific population of DRG neurons innervating the urinary bladder. The population of DRG neurons that innervate the urinary bladder were labeled by retrograde axonal transport of the fluorescent dye, Fast Blue (4% w/v) (Polyloy, Gross Umstadt, Germany), injected into the wall of the bladder in halothane-anesthetized animals 7 days before the dissociation. The dye was injected with a 28 gauge needle at three to six sites on the dorsal surface of the organ (5–6 μL per site, total volume of 20–30 μL). Each injection site was washed with saline to minimize contamination of adjacent organs with the dye.
Freshly dissociated neurons from DRG were prepared from halothane-anesthetized animals. L6 and S1 DRG were dissected from animals and then dissociated in a shaking bath for 25 minutes at 35° C. with 5 mL DMEM (Sigma) containing 0.3 mg/mL trypsin (Type 3, Sigma), 1 mg/mL collagenase (Type 1, Sigma), and 0.1 mg/mL deoxyribonuclease (Type 4, Sigma). Trypsin inhibitor (Type 2a, Sigma) was then added thereto to neutralize the activity of trypsin. Individual DRG cell bodies were isolated by trituration and then plated on a poly-L-lysine-coated 35 mm Petri dishes.
Dye-labeled primary afferent neurons that innervate the urinary bladder were identified using an inverted phase-contrast microscope (Nikon, Tokyo, Japan) with fluorescent attachments (UV-1A filter; excitation wavelength, 365 nm). Gigaohm-seal whole-cell recordings were performed at room temperature (20–22° C.) on each labeled neuron in a culture dish that usually contained three to seven labeled cells among a few hundred unlabeled neurons. The internal solution contained (in mmol/L): KCl 140, CaCl2 1, MgCl2 2, EGTA 11, HEPES 10, Mg-ATP 2, and Tris-GTP 0.4 adjusted to pH 7.4 with KOH. Patch electrodes had resistances of 1–4 M Ω when filled with the internal solution. Neurons were superfused at a flow rate of 1.5 mL/minutes with an external solution containing (in mmol/L): NaCl 150, KCl 5, CaCl2 2.5, MgCl2 1, HEPES 10, and D-glucose 10, adjusted to pH 7.4 with NaOH. All recordings were made with an Axopatch-1D patch-clamp amplifier (Axon Instruments, Foster City, Calif.), and data were acquired and analyzed by PCLAMP software (Axon Instruments).
In voltage-clamp recordings, outward K^+ currents and inward Na^+ currents were measured. For the isolation of K^+ currents, the external solution was changed to one containing (in mmol/L): choline-Cl 150, KOH 5, CaCl2 0.03, HEPES 10, Mg(OH)2 3, and D-glucose 10, adjusted to pH 7.4 with HCl.
In first series of experiments using unidentified DRG neurons, outward K^+ currents were evoked by voltage steps to +60 mV, 800 ms long from a holding potentials of −90 mV, this was followed by a 1-second conditioning pre-pulse to −20 mV followed by a second pulse to +60 mV, identical to the first in the sequence. In the second series of experiments using Fast Blue-labeled bladder afferent neurons, slowly-inactivating A-type K^+ currents were isolated by subtraction of outward K^+ currents activated from a holding potential of −40 mV (on the condition of inactivation of the majority of slowly-inactivating A-type K^+ currents) from those activated from a holding potential of −120 mV (on the condition of full activation of slowly-inactivating A-type K^+ currents). A compound was added cumulatively, starting with a lower concentration. Currents were measured at the maximum (peak) and normalized to control (before addition of the compound).
The currents at a holding potential (HP) of −90 mV are results of the measurement of slowly-inactivating A-type K^+ currents, and the currents at an HP value of −20 mV are results of the measurement of delayed rectifier K^+ currents. […]

[2] = tested on: delayed rectifier K^+ channel; assay: Voltage clamp, delayed rectifier K+ currents in Fast Blue-labeled capsaicin-sensitive bladder afferent neurons; format: cell-based, rat; conditions: Compound 1 1.0 × 10^−6 mol/L
Experimental: as §1
Freshly dissociated neurons from DRG were prepared from halothane-anesthetized animals. […]
Dye-labeled primary afferent neurons that innervate the urinary bladder were identified using an inverted phase-contrast microscope (Nikon, Tokyo, Japan) with fluorescent attachments (UV-1A filter; excitation wavelength, 365 nm). […] All recordings were made with an Axopatch-1D patch-clamp amplifier (Axon Instruments, Foster City, Calif.), and data were acquired and analyzed by PCLAMP software (Axon Instruments).
In voltage-clamp recordings, outward K^+ currents and inward Na^+ currents were measured. […]

Compound: C[C@](O)(C(=O)Nc1cccc2c1C(=O)c1sccc1CS2(=O)=O)C(F)(F)F [Compound 1, (S)-(+)-N-(5,5-dioxido-10-oxo-4,10-dihydrothieno[3,2-c][1]benzothiepin-9-yl)-3,3,3-trifluoro-2-hydroxy-2-methylpropanamide]
- K+ current HP: −90 mV, relative value (before drug = 1) ([1]; Compound 1 1.0 × 10^−5 mol/L, in the presence of 5 μmol/L verapamil): 0.99 ± 0.02
- K+ current HP: −90 mV, relative value (before drug = 1) ([1]; Compound 1 1.0 × 10^−5 mol/L, in the presence of 20 mmol/L tetraethylammonium): 1.19 ± 0.01
- K+ current HP: −90 mV (slowly-inactivating A-type), relative value (before drug = 1) ([1]; Compound 1 1.0 × 10^−5 mol/L): 0.96 ± 0.05
- K+ current HP: −90 mV, relative value (before drug = 1) ([1]; Compound 1 1.0 × 10^−6 mol/L, in the presence of 5 μmol/L verapamil): 1.11 ± 0.03
- K+ current HP: −90 mV, relative value (before drug = 1) ([1]; Compound 1 1.0 × 10^−6 mol/L, in the presence of 20 mmol/L tetraethylammonium): 1.19 ± 0.05
- K+ current HP: −90 mV (slowly-inactivating A-type), relative value (before drug = 1) ([1]; Compound 1 1.0 × 10^−6 mol/L): 1.06 ± 0.02
- K+ current HP: −90 mV, relative value (before drug = 1) ([1]; Compound 1 1.0 × 10^−7 mol/L, in the presence of 5 μmol/L verapamil): 1.13 ± 0.02
- K+ current HP: −90 mV, relative value (before drug = 1) ([1]; Compound 1 1.0 × 10^−7 mol/L, in the presence of 20 mmol/L tetraethylammonium): 1.10 ± 0.01
- K+ current HP: −90 mV (slowly-inactivating A-type), relative value (before drug = 1) ([1]; Compound 1 1.0 × 10^−7 mol/L): 1.12 ± 0.03
- K+ current HP: −90 mV (slowly-inactivating A-type), relative value (before drug = 1) ([1]; Compound 1 1.0 × 10^−8 mol/L): 0.99 ± 0.08
- K+ current HP: −90 mV (slowly-inactivating A-type), relative value (before drug = 1) ([1]; Compound 1 2.5 × 10^−8 mol/L): 1.07 ± 0.03
- K+ current HP: −90 mV, relative value (before drug = 1) ([1]; Compound 1 5.0 × 10^−4 mol/L, in the presence of 5 μmol/L verapamil): 0.61 ± 0.05
- K+ current HP: −90 mV, relative value (before drug = 1) ([1]; Compound 1 5.0 × 10^−4 mol/L, in the presence of 20 mmol/L tetraethylammonium): 0.29 ± 0.02
- K+ current HP: −90 mV, relative value (before drug = 1) ([1]; Compound 1 5.0 × 10^−4 mol/L, in the presence of 60 mmol/L tetraethylammonium): 0.56 ± 0.05
- K+ current HP: −90 mV, relative value (before drug = 1) ([1]; Compound 1 5.0 × 10^−5 mol/L, in the presence of 5 μmol/L verapamil): 0.94 ± 0.02
- K+ current HP: −90 mV, relative value (before drug = 1) ([1]; Compound 1 5.0 × 10^−5 mol/L, in the presence of 20 mmol/L tetraethylammonium): 0.91 ± 0.04
- K+ current HP: −90 mV, relative value (before drug = 1) ([1]; Compound 1 5.0 × 10^−5 mol/L, in the presence of 60 mmol/L tetraethylammonium): 1.15 ± 0.08
- K+ current HP: −90 mV (slowly-inactivating A-type), relative value (before drug = 1) ([1]; Compound 1 5.0 × 10^−5 mol/L): 0.83 ± 0.09
- K+ current HP: −90 mV, relative value (before drug = 1) ([1]; Compound 1 5.0 × 10^−6 mol/L, in the presence of 5 μmol/L verapamil): 1.02 ± 0.03
- K+ current HP: −90 mV, relative value (before drug = 1) ([1]; Compound 1 5.0 × 10^−6 mol/L, in the presence of 20 mmol/L tetraethylammonium): 1.16 ± 0.03
- K+ current HP: −90 mV, relative value (before drug = 1) ([1]; Compound 1 5.0 × 10^−6 mol/L, in the presence of 60 mmol/L tetraethylammonium): 1.14 ± 0.05
- K+ current HP: −90 mV, relative value (before drug = 1) ([1]; Compound 1 5.0 × 10^−7 mol/L, in the presence of 5 μmol/L verapamil): 1.17 ± 0.03
- K+ current HP: −90 mV, relative value (before drug = 1) ([1]; Compound 1 5.0 × 10^−7 mol/L, in the presence of 20 mmol/L tetraethylammonium): 1.15 ± 0.04
- K+ current HP: −90 mV, relative value (before drug = 1) ([1]; Compound 1 5.0 × 10^−7 mol/L, in the presence of 60 mmol/L tetraethylammonium): 1.11 ± 0.03
- K+ current HP: −90 mV (slowly-inactivating A-type), relative value (before drug = 1) ([1]; Compound 1 5.0 × 10^−7 mol/L): 1.15 ± 0.03
- K+ current HP: −90 mV, relative value (before drug = 1) ([1]; Compound 1 5.0 × 10^−8 mol/L, in the presence of 5 μmol/L verapamil): 1.03 ± 0.02
- K+ current HP: −90 mV, relative value (before drug = 1) ([1]; Compound 1 5.0 × 10^−8 mol/L, in the presence of 20 mmol/L tetraethylammonium): 1.08 ± 0.02
- K+ current HP: −90 mV, relative value (before drug = 1) ([1]; Compound 1 5.0 × 10^−8 mol/L, in the presence of 60 mmol/L tetraethylammonium): 1.08 ± 0.02
- K+ current HP: −90 mV (slowly-inactivating A-type), relative value (before drug = 1) ([1]; Compound 1 5.0 × 10^−8 mol/L): 1.07 ± 0.02
- K+ current HP: −90 mV, relative value (before drug = 1) ([1]; Compound 1 5.0 × 10^−9 mol/L, in the presence of 20 mmol/L tetraethylammonium): 1.02 ± 0.02
- K+ current HP: −90 mV (slowly-inactivating A-type), relative value (before drug = 1) ([1]; Compound 1 5.0 × 10^−9 mol/L): 1.01 ± 0.03
- Peak compound concentration for increase of slowly-inactivating A-type K^+ currents ([1]; unidentified DRG cells, HP −90 mV): 1e-07 to 5e-07 mol/L
- Delayed rectifier HP: −40 mV, normalized to control [2]: 1.10 ± 0.01
